# Measured values taken from patent publication US4557754A, “Bis-(N,N-dimethyl-N-carbodecyloxymethyl-N-ethylene-ammonium)-sulphide dichloride and use thereof” (priority 1980, dated 1985).
# Key:
# [1] = Stability of aqueous solutions / retention of antimicrobial activity; assay type: physicochemical
# Text: Aqueous solutions of the preparation were stable.
# Acute toxicity test [2] = assay type: in vivo, white mice; settings: mouse, in vivo, mice, 24 hours
# Method: (§1) Bis-(N,N-dimethyl-N-carbodecyloxymethyl-N-ethyleneammonium)-sulphide dichloride was tested for toxicity in an acute test on rats of both sexes with an average mass of 200 to 250 g and on white mice of both sexes with an average mass of 22 to 25 g with enteral and intraperitoneal administrations. Aqueous solutions of the above preparation (from 10 to 5000 mg per kg of animal weight) were used for enteral and intraperitoneal administration. Each dosage was tried on five animals. Animal death rate was registered 24 hours after the administration of the above solutions.
# Mice = assay: Acute toxicity test; assay type: in vivo, white mice; settings: for LD100: mice, 24 hours
# Method: as §1
# Staphylococcus albus = assay: Antimicrobial activity, series dilutions in liquid nutrient media; assay type: cell-based; settings: 20 strains
# Method: (§2) Antimicrobial properties of said preparation were investigated by a classical method of series dilutions in standard liquid nutrient media.
# (§3) The activity of the above preparation was tested by its action on staphylococci, Escherichia coli, and intestinal group microorganisms.
# Shigella sonnei = assay: as above; assay type: cell-based; settings: 7 strains
# Method: as §2, §3
# Salmonella sp. = assay: as above; assay type: cell-based; settings: 7 strains
# Method: as §2, §3
# Proteus morgani = assay: as above; assay type: cell-based; settings: 4 strains
# Method: as §2, §3
# Staphylococcus aureus = assay: as above; assay type: cell-based; settings: 20 strains
# Method: as §2, §3
# Escherichia coli = assay: as above; assay type: cell-based; settings: 10 strains
# Method: as §2, §3
# Proteus vulgaris = assay: as above; assay type: cell-based; settings: 2 strains
# Method: as §2, §3
# calves = assay: Chronic toxicity test, intravenous; assay type: in vivo; settings: 10 mg per kg daily for 30 days
# Text: Test group consisted of 10 calves, the other 10 calves to which the above preparation was not prescribed making up a control group. The calves of both groups were kept in the same conditions. General state and behaviour of the calves, rate of gain were controlled and peripheric blood counts (hemoglobin, erythrocytes, leucocytes, thrombocytes, differential blood count) were made daily during the test. To determine the functional state of liver, kidneys, and pancreas, certain biochemical characteristics of the urine (protein, sugar, and biliary pigments content) and blood (sugar, cholesterol, bilirubin, urea, alkaline phosphatase, and chlorides content) were studied.
# At the end of the test period the test group animals were killed and their internal organs were studied by macro- and microscopic techniques.
# [3] = tested on: staphylococci, Escherichia coli, and intestinal group microorganisms; assay: Antimicrobial action, overall; assay type: cell-based; settings: analysis of the test results
# Method: as §2, §3
# Acute toxicity test [4] = assay type: in vivo; settings: rat, in vivo, rats
# Method: as §1
# Rats [5] = assay: Acute toxicity test; assay type: in vivo; settings: 24 hours
# Method: as §1
# lettuce = assay: Effect on development of sprouts, agar medium in Petri dishes; assay type: in vivo; design: Germination capacity, lettuce: unit not given here; settings: for Plant parts length, lettuce root / Plant parts length, lettuce stalk: 7 days
# Method: (§4) The effect of the preparation was studied for 7 days under laboratory conditions on lettuce and oats plants.
# (§5) The standards used in the tests were chlorocholine chloride whose structure is close to the studied chemical compound and heteroauxin phytohormone. Experiments on lettuce and oats growing in the presence of the above substances at a concentration of from 0.1 to 0.00001 wt.% were performed in Petri dishes with the use of agar medium as a substrate.
# (§6) The seeds were placed into Petri dishes on solidified agar containing the test substance in the concentration indicated. The seeds germinated in a thermostat for 3 days at a temperature of from 22° to 24° C. Petri dishes with the sprouts were then placed for further growth into an exhausting hood with illumination for 4 days, whereafter the length of the roots, stalks and leaves of the sprouts was measured.
# Rats [6] = assay: Toxicity (LD50) compared with chlorocholine chloride; assay type: in vivo; settings: versus chlorocholine chloride
# oats = assay: Effect on development of sprouts, agar medium in Petri dishes; assay type: in vivo; design: Germination capacity, oats: unit not given here; settings: for Plant parts length, oats leaf / Plant parts length, oats root: 7 days
# Method: as §4, §5, §6
# Solubility = assay type: physicochemical
# [7] = Treatment of inflammatory diseases of the middle ear; assay type: in vivo, men; settings: for Recovery with comparator solutions: in a great number of cases; for Irrigations of the tympanic cavity required, relative to the preparation: solutions, for the same purpose
# Method: was tested in treating inflammatory diseases of the middle ear in men: acute otitis and antritis media purulenta, chronic purulent mesotympanitis, and chronic purulent epitympanitis.
# The treatment was applied to 65 patients.
# The treatment procedure consisted in thorough and copious irrigation (with the help of Hartmann's cannula or blunt-ended needle) of the middle ear, attic, and Eustachian tube for maximum removal of purulent exudate and cholesteatoma masses.
# Rats [8] = settings: cited from earlier work
# [9] = read-out: Average bactericidal concentration
# [10] = read-out: Average bacteriostatic concentration
smiles,measurement,setting,value
"CCCCCCCCCCOC(=O)C[N+](C)(C)CCSCC[N+](C)(C)CC(=O)OCCCCCCCCCC [bis-(N,N-dimethyl-N-carbodecyloxymethyl-N-ethyleneammonium)-sulphide dichloride]",Activity after storage of solutions,"[1]; 1% and 0.1% solutions, 6 months",did not lose its activity
same,Stability of aqueous solutions,[1]; aqueous solutions,stable
same,Antimicrobial activity as a function of pH,[1]; pH 5 to 8,remains unchanged
same,Antimicrobial activity after autoclaving,"[1]; single and double autoclaving, 60 minutes at 2.5 atm",did not alter the antimicrobial activity
same,LD50 at 24 h,"Acute toxicity test [2]; ip, intraperitoneal",54.1 mg/kg
same,LD50 at 24 h,"Acute toxicity test [2]; po, enteral",1220 mg/kg
same,"Toxicity group, overall","Mice; analysis of the test results (mice, rats, calves)",low-toxic
same,LD100,Mice; enteral,2500 mg/kg
same,LD100,Mice; intraperitoneal,70.0 mg/kg
same,MBC,Staphylococcus albus; [9],1.67 µg/mL
same,MIC,Staphylococcus albus; [10],0.6 µg/mL
same,MBC,Shigella sonnei; [9],28.4 µg/mL
same,MIC,Shigella sonnei; [10],5.85 µg/mL
same,MBC,Salmonella sp.; [9],31.2 µg/mL
same,MIC,Salmonella sp.; [10],31.2 µg/mL
same,MBC,Proteus morgani; [9],50.7 µg/mL
same,MIC,Proteus morgani; [10],50.7 µg/mL
same,MBC,Staphylococcus aureus; [9],2.63 µg/mL
same,MIC,Staphylococcus aureus; [10],0.76 µg/mL
same,MBC,Escherichia coli; [9],6.4 µg/mL
same,MIC,Escherichia coli; [10],3.9 µg/mL
same,MBC,Proteus vulgaris; [9],62.5 µg/mL
same,MIC,Proteus vulgaris; [10],62.5 µg/mL
same,"Pathologic changes at autopsy, macro- and microscopic study",calves,no pathologic changes
same,Changes in the calves under chronic test conditions,calves; 0.2 wt.% in sodium chloride solution,did not cause significant changes
same,"Antimicrobial action, overall",[3],strong antimicrobial action
same,LD50 at 24 h,"Acute toxicity test [4]; ip, intraperitoneal",67.7 mg/kg
same,LD50 at 24 h,"Acute toxicity test [4]; po, enteral",2660 mg/kg
same,LD100,Rats [5]; enteral,3500 mg/kg
same,LD100,Rats [5]; intraperitoneal,80.0 mg/kg
same,"Germination capacity, lettuce",lettuce; 0.00001 wt. %,86
same,"Plant parts length, lettuce root",lettuce; 0.00001 wt. %,91
same,"Plant parts length, lettuce stalk",lettuce; 0.00001 wt. %,91
same,"Germination capacity, lettuce",lettuce; 0.0001 wt. %,89
same,"Plant parts length, lettuce root",lettuce; 0.0001 wt. %,96
same,"Plant parts length, lettuce stalk",lettuce; 0.0001 wt. %,99
same,"Germination capacity, lettuce",lettuce; 0.001 wt. %,100
same,"Plant parts length, lettuce root",lettuce; 0.001 wt. %,88
same,"Plant parts length, lettuce stalk",lettuce; 0.001 wt. %,91
same,"Germination capacity, lettuce",lettuce; 0.01 wt. %,34
same,"Plant parts length, lettuce root",lettuce; 0.01 wt. %,15
same,"Plant parts length, lettuce stalk",lettuce; 0.01 wt. %,38
same,"Germination capacity, lettuce",lettuce; 0.1 wt. %,0
same,"Plant parts length, lettuce root",lettuce; 0.1 wt. %,2
same,"Plant parts length, lettuce stalk",lettuce; 0.1 wt. %,0
same,Herbicidal action,"lettuce; 0.1 wt.%, dicotyledonous plants",selective herbicide
same,Phytoncidal action,lettuce; lettuce (dicotyledonous),more phytoncidal
same,Toxicity compared with chlorocholine chloride,Rats [6],much lower
same,"Germination capacity, oats",oats; 0.00001 wt. %,91
same,"Plant parts length, oats leaf",oats; 0.00001 wt. %,105
same,"Plant parts length, oats root",oats; 0.00001 wt. %,100
same,"Germination capacity, oats",oats; 0.0001 wt. %,87
same,"Plant parts length, oats leaf",oats; 0.0001 wt. %,99
same,"Plant parts length, oats root",oats; 0.0001 wt. %,86
same,"Germination capacity, oats",oats; 0.001 wt. %,87
same,"Plant parts length, oats leaf",oats; 0.001 wt. %,96
same,"Plant parts length, oats root",oats; 0.001 wt. %,88
same,"Germination capacity, oats",oats; 0.01 wt. %,86
same,"Plant parts length, oats leaf",oats; 0.01 wt. %,93
same,"Plant parts length, oats root",oats; 0.01 wt. %,54
same,"Germination capacity, oats",oats; 0.1 wt. %,87
same,"Plant parts length, oats leaf",oats; 0.1 wt. %,55
same,"Plant parts length, oats root",oats; 0.1 wt. %,6
same,Inhibition of growth of roots versus leaves,oats; oats (monocotyledonous),more strongly inhibits the growth of roots than that of leaves
same,Solubility in diethyl ether,Solubility; diethyl ether,insoluble
same,Solubility in lower alcohols,Solubility; lower alcohols,soluble
same,Solubility in water,Solubility; water,soluble
O=C(O)Cc1c[nH]c2ccccc12 [Heteroauxine],"Germination capacity, lettuce",lettuce; 0.0001 wt. %,81
same,"Plant parts length, lettuce root",lettuce; 0.0001 wt. %,88
same,"Plant parts length, lettuce stalk",lettuce; 0.0001 wt. %,92
same,"Germination capacity, lettuce",lettuce; 0.001 wt. %,55
same,"Plant parts length, lettuce root",lettuce; 0.001 wt. %,27
same,"Plant parts length, lettuce stalk",lettuce; 0.001 wt. %,24
same,"Germination capacity, lettuce",lettuce; 0.01 wt. %,0
same,"Plant parts length, lettuce root",lettuce; 0.01 wt. %,0
same,"Plant parts length, lettuce stalk",lettuce; 0.01 wt. %,0
same,"Germination capacity, oats",oats; 0.0001 wt. %,100
same,"Plant parts length, oats leaf",oats; 0.0001 wt. %,92
same,"Plant parts length, oats root",oats; 0.0001 wt. %,88
same,"Germination capacity, oats",oats; 0.001 wt. %,102
same,"Plant parts length, oats leaf",oats; 0.001 wt. %,67
same,"Plant parts length, oats root",oats; 0.001 wt. %,28
same,"Germination capacity, oats",oats; 0.01 wt. %,84
same,"Plant parts length, oats leaf",oats; 0.01 wt. %,35
same,"Plant parts length, oats root",oats; 0.01 wt. %,19
CC1(C)S[C@@H]2[C@H](NC(=O)Cc3ccccc3)C(=O)N2[C@H]1C(=O)O [penicillin],Recovery with comparator solutions,[7],did not result in recovery
same,"Irrigations of the tympanic cavity required, relative to the preparation",[7],twice as many or even more
C[N+](C)(C)CCCl.[Cl-] [Chlorocholine chloride],LD50,Rats [8],250 mg/kg
same,"Germination capacity, lettuce",lettuce; 0.0001 wt. %,98
same,"Plant parts length, lettuce root",lettuce; 0.0001 wt. %,104
same,"Plant parts length, lettuce stalk",lettuce; 0.0001 wt. %,98
same,"Germination capacity, lettuce",lettuce; 0.001 wt. %,94
same,"Plant parts length, lettuce root",lettuce; 0.001 wt. %,102
same,"Plant parts length, lettuce stalk",lettuce; 0.001 wt. %,110
same,"Germination capacity, lettuce",lettuce; 0.01 wt. %,94
same,Inhibition of root development,lettuce; 0.01 wt. %,does not inhibit root development
same,"Plant parts length, lettuce root",lettuce; 0.01 wt. %,101
same,"Plant parts length, lettuce stalk",lettuce; 0.01 wt. %,99
same,"Germination capacity, oats",oats; 0.0001 wt. %,91
same,"Plant parts length, oats leaf",oats; 0.0001 wt. %,94
same,"Plant parts length, oats root",oats; 0.0001 wt. %,102
same,"Germination capacity, oats",oats; 0.001 wt. %,99
same,"Plant parts length, oats leaf",oats; 0.001 wt. %,97
same,"Plant parts length, oats root",oats; 0.001 wt. %,92
same,"Germination capacity, oats",oats; 0.01 wt. %,98
same,"Plant parts length, oats leaf",oats; 0.01 wt. %,96
same,"Plant parts length, oats root",oats; 0.01 wt. %,94
[H]/N=C(/N)N[C@H]1[C@H](O)[C@@H](O)[C@H](O[C@@H]2O[C@@H](C)[C@](O)(C=O)[C@H]2O[C@@H]2O[C@@H](CO)[C@H](O)[C@@H](O)[C@@H]2NC)[C@@H](N/C(N)=N\[H])[C@@H]1O [streptomycin],Recovery with comparator solutions,[7],did not result in recovery
same,"Irrigations of the tympanic cavity required, relative to the preparation",[7],twice as many or even more
